PubChem BioAssay (NCI)
Where “and” joins values, the source holds several entries; their conditions need not be identical. Equal entries are not always repeated.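 Five compound concentrations were applied to cells in 96-well plates for 48 hours; endpoints were derived by simple linear interpolation of the resulting dose-response curve. GI50 is the concentration that inhibits growth by half. TGI: total growth inhibition.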 Where a SMILES comes first, the peptide text is derived from it. [ ]: non-standard residue; d: D form. The star is where a group is joined. ξ: configuration not given here. NMeF = CN[C@@H](Cc1ccccc1)C(=O)O; NMeV = CN[C@H](C(=O)O)C(C)C; ξNMeV = CNC(C(=O)O)C(C)C; Boc = CC(C)(C)OC(=O)*; OBn = c1ccc(CO*)cc1

Legend:
Assay in all cases: NCI-60 cell line screen, 48 h
CCRF-CEM leukemia = test system: CCRF-CEM leukemia
HL-60(TB) leukemia = test system: HL-60(TB) leukemia
OVCAR-4 ovarian = test system: OVCAR-4 ovarian
RXF 393 renal = test system: RXF 393 renal
SK-MEL-2 melanoma = test system: SK-MEL-2 melanoma
SN12C renal = test system: SN12C renal
SR leukemia = test system: SR leukemia
DU-145 prostate = test system: DU-145 prostate
HS 578T breast = test system: HS 578T breast
MDA-N = test system: MDA-N

SMILES	TGI (CCRF-CEM leukemia)	TGI (HL-60(TB) leukemia)	TGI (OVCAR-4 ovarian)	TGI (RXF 393 renal)	TGI (SK-MEL-2 melanoma)	TGI (SN12C renal)	TGI (SR leukemia)	TGI (DU-145 prostate)	TGI (HS 578T breast)	TGI (MDA-N)	GI50 (SK-MEL-2 melanoma)	GI50 (CCRF-CEM leukemia)	GI50 (HL-60(TB) leukemia)	GI50 (HS 578T breast)	GI50 (RXF 393 renal)	GI50 (SR leukemia)	GI50 (OVCAR-4 ovarian)	GI50 (SN12C renal)
Cc1ccc(NC(=O)C2C3CCC(O3)C2C(=O)O)cc1 (stereo not drawn)	> 75.5 µM	> 60.6 µM	> 100 µM	48.6 µM	> 100 µM	> 81.4 µM	43.6 µM	–	–	–	–	–	–	–	–	–	–	–
COc1ccc(C2=NNC(=O)c3ccccc3N2c2nc(-c3cccs3)nc3cc(OC)c(OC)cc23)cc1	–	–	4.49 µM	–	44.2 µM	11.1 µM	> 100 µM	> 100 µM	27.5 µM	–	–	–	–	–	–	–	–	–
O=c1c2c3c(sc2nc2n1NC=NN2)CCCC3	4.88 µM	7.34 µM	34.1 µM	> 61.9 µM	> 66.6 µM	39.6 µM	–	> 90.4 µM	52.7 µM	30.9 µM	–	–	–	–	–	–	–	–
CC1OC(O[C@@H]2C=C3CC[C@@H]4[C@H](CC[C@]5(C)[C@@H](c6ccc(=O)oc6)CC[C@]45O)[C@@]3(C)CC2)C(O)C(OC2OC(CO)C(O)C(O)C2O)C1O (stereo partly drawn)	0.133 µM	–	0.00798 µM	–	0.0409 µM and 0.0257 µM	–	–	0.0111 µM	–	–	0.000866 µM	–	–	–	–	–	–	–
Nc1ccn(C2CCC(COP(=O)(O)OCC(O)COP(=O)(O)OCC3OC(n4cc(F)c(=O)[nH]c4=O)CC3O)O2)c(=O)n1 (stereo not drawn)	> 100 µM	> 100 µM	> 100 µM	> 100 µM	> 100 µM	> 100 µM	–	> 100 µM	> 100 µM	> 100 µM	–	–	–	–	–	–	–	–
NC1=Nc2ccccc2Sc2cccc(F)c21	56.9 µM	88 µM	> 100 µM	> 100 µM	> 100 µM	> 100 µM	> 100 µM	> 100 µM	–	> 100 µM	–	–	–	–	–	–	–	–
CN(C)CCC[N+]1=Nc2cccc3cccc(c23)N1	80.8 µM	47.5 µM	> 100 µM	–	> 100 µM	> 100 µM	35.5 µM	–	–	–	–	–	–	–	–	–	–	–
Cc1ccnc(Nc2[nH]c(C(=O)c3ccc(Cl)cc3)c(N)c2C(=S)Nc2ccccc2)c1	> 100 µM	64.6 µM	29.4 µM	32.5 µM	21.5 µM	31 µM	39 µM	63.7 µM	–	47.9 µM	–	–	–	–	–	–	–	–
O=C1CN(c2cccc(C(F)(F)F)c2)C(=O)CN1CCN1CC(=O)N(c2cccc(C(F)(F)F)c2)CC1=O	> 100 µM	> 100 µM	> 100 µM	–	–	> 100 µM	> 100 µM	–	> 100 µM	> 100 µM	–	–	–	–	–	–	–	–
Cn1c(=O)c2[nH]c(SC/C(=N/O)c3ccc(Br)cc3)nc2n(C)c1=O	57.1 µM	> 100 µM	–	3.76 µM	4.26 µM	–	> 100 µM	–	7.9 µM	–	2.08 µM	14.3 µM	68.6 µM	3.05 µM	2.05 µM	2.83 µM	–	–
O=C(NC1C/C(=N/O)c2c(Br)sc(Br)c21)C(F)(F)F (stereo not drawn)	48.5 µM	> 100 µM	43.7 µM	> 100 µM	90.1 µM	56.1 µM	–	> 100 µM	36.3 µM	> 100 µM	–	–	–	–	–	–	–	–
COc1ccc(Nc2nc(N)c(C(=O)c3ccc(Cl)cc3)s2)cc1	–	< 0.0331 µM	2.65 µM	0.0323 µM	38.6 µM	22.3 µM	–	0.0558 µM	> 100 µM	–	–	–	–	–	–	–	–	–
COc1cc(S(=O)(=O)Nc2ccc(-c3csc(N4C(=O)CSC4c4ccccc4O)n3)cc2)ccc1Cl (stereo not drawn)	> 100 µM	49.8 µM	> 100 µM	–	> 100 µM	> 100 µM	> 100 µM	> 100 µM	–	> 100 µM	–	–	–	–	–	–	–	–
CC(=O)OCC1OC(N=[N+]=[N-])C(OC(C)=O)C(OC(C)=O)C1OC1OC(COC(C)=O)C(OC(C)=O)C(OC(C)=O)C1OC(C)=O (stereo not drawn)	> 100 µM	> 100 µM	> 100 µM	> 100 µM	> 100 µM	> 100 µM	–	–	–	–	–	–	–	–	–	–	–	–
COC(=O)c1ccccc1C1CN=NC12Cc1ccc3c(c1C2=O)CCC3 (stereo not drawn)	> 100 µM	> 100 µM	> 100 µM	> 100 µM	> 100 µM	> 100 µM	–	> 100 µM	> 100 µM	> 100 µM	–	–	–	–	–	–	–	–
CC(C)(C)OC(=O)N1N=CCC1c1ccccc1 (stereo not drawn)	> 100 µM	> 100 µM	–	> 100 µM	–	> 100 µM	> 100 µM	> 100 µM	> 100 µM	–	–	–	–	–	–	–	–	–
COc1cccc(CCNc2c(C#N)c3n(c4ccccc4[n+]3C)c3ncccc23)c1	–	–	10.8 µM	38.2 µM	43.3 µM	32.7 µM	> 100 µM	11.3 µM	15 µM	11.1 µM	–	–	–	–	–	–	–	–
CC#COS(=O)(=O)c1ccc(C)cc1	> 100 µM	59.8 µM	> 100 µM	–	> 100 µM	> 100 µM	> 100 µM	–	–	–	–	–	–	–	–	–	–	–
COc1cc(O)c(Cc2ccccc2O)c(O)c1C(=O)CCc1ccccc1	22.5 µM	20 µM	18.5 µM	18.9 µM	12.8 µM	17 µM	–	–	–	–	–	–	–	–	–	–	–	–
O=C1C(=C([O-])c2ccccc2)C(=O)c2ccccc21.O=C1C(=C([O-])c2ccccc2)C(=O)c2ccccc21.[Ni+2]	> 100 µM	–	> 100 µM	> 100 µM	> 100 µM	> 100 µM	–	–	–	–	98 µM	54.7 µM	–	–	48.8 µM	–	61.6 µM	51.3 µM
CC(C)C(C(=O)N(C)[C@H](C(=O)N1CCC[C@H]1C(=O)N(C)[C@@H](Cc1ccccc1)C(=O)OCc1ccccc1)C(C)C)N(C)C(=O)[C@@H](NC(=O)OC(C)(C)C)C(C)C (stereo partly drawn) (Boc-V[ξNMeV][NMeV]P[NMeF]-OBn)	> 31.6 µM	8.25 µM	> 100 µM	> 31.6 µM	> 31.6 µM	> 100 µM	> 31.6 µM	–	–	–	–	–	–	–	–	–	–	–
CCCCCCCCCCCCOC1C(COCCN2CCCCC2)OC2OC(C)(C)OC21 (stereo not drawn)	2.99 µM	3.02 µM	–	3.4 µM	3.14 µM	4.72 µM	–	21.6 µM	4.17 µM	2.9 µM	–	–	–	–	–	–	–	–
COc1ccccc1C(=O)OCC1CCCN2CCCCC12 (stereo not drawn)	46.1 µM	44.2 µM	> 100 µM	73.6 µM	> 100 µM	96 µM	–	> 100 µM	> 100 µM	–	–	–	–	–	–	–	–	–
